Data: ChEMBL document CHEMBL4715874, “In Vivo Screening of Xanthones from Garcinia oligantha Identified Oliganthin H as a Novel Natural Inhibitor of Convulsions” (J Nat Prod, 2020)
The source made the active and inactive calls. No cut-off for these calls is given here.

Key:
Danio rerio [1] = organism: Danio rerio; assay: Anticonvulsant activity in AB zebra fish larvae assessed as PTZ-induced seizure activity at 6.2 uM pretreated for 6 hrs followed by PTZ-stimulation and measured every 5 mins for 30 mins (reference value: 14.13 +/- 0.004 mm); format: functional; conditions: time 6.5 hrs
[2] = Toxicity in AB zebra fish larvae assessed as mortality at 100 uM after 6 hrs; parameters: species or system Danio rerio; conditions: zebrafish
[3] = Neurotoxicity in AB zebra fish larvae at 100 uM after 6 hrs; format: toxicity, Danio rerio; conditions: zebrafish
[4] = Toxicity in AB zebra fish larvae assessed as maximum tolerated concentration after 6 hrs; parameters: species or system Danio rerio; conditions: zebrafish, read-out: MTC
[5] = Neurotoxicity in AB zebra fish larvae assessed as decrease in total swimming distance at <= MTC after 6 hrs; format: toxicity, Danio rerio; conditions: zebrafish
[6] = Neurotoxicity in AB zebra fish larvae assessed as increase in total swimming distance at > 12.5 uM after 6 hrs; format: toxicity, Danio rerio; conditions: zebrafish
Danio rerio [7] = organism: Danio rerio; assay: Anticonvulsant activity in AB zebra fish larvae assessed as reduction in PTZ-induced convulsant behavior by measuring swimming distance at 12.5 uM pretreated for 6 hrs followed by PTZ-stimulation and measured every 5 mins for 1 hr relative to control; format: functional; parameters: scale not given: the % may be the effect or the level left; conditions: time 7 hrs
Danio rerio [8] = organism: Danio rerio; assay: Anticonvulsant activity in AB zebra fish larvae assessed as reduction in PTZ-induced convulsant behavior by measuring swimming distance at 25 uM pretreated for 6 hrs followed by PTZ-stimulation and measured every 5 mins for 1 hr relative to control; format: functional; parameters: scale not given: the % may be the effect or the level left; conditions: time 7 hrs
Danio rerio [9] = organism: Danio rerio; assay: Anticonvulsant activity in AB zebra fish larvae assessed as reduction in PTZ-induced convulsant behavior by measuring swimming distance at 6.2 uM pretreated for 6 hrs followed by PTZ-stimulation and measured every 5 mins for 1 hr; format: functional, organism-based; conditions: time 7.0 hrs
Danio rerio [10] = organism: Danio rerio; assay: Anticonvulsant activity in AB zebra fish larvae assessed as reduction in PTZ-induced convulsant behavior by measuring lowest observed effect concentration pretreated for 6 hrs followed by PTZ-stimulation and measured every 5 mins for 1 hr; format: functional; conditions: time 7 hrs
[11] = Ratio of MTC for toxicity in AB zebra fish larvae to lowest observed effect concentration for Anticonvulsant activity in AB zebra fish larvae assessed as reduction in PTZ-induced convulsant behavior; parameters: species or system Danio rerio
Danio rerio [12] = organism: Danio rerio; assay: Anticonvulsant activity in AB zebra fish larvae assessed as PTZ-induced velocity at 6.2 uM pretreated for 6 hrs followed by PTZ-stimulation and measured every 5 mins for 30 mins (reference value: 0.63 +/- 0.23 mm/s); format: functional; conditions: time 6.5 hrs
Danio rerio [13] = organism: Danio rerio; assay: Anticonvulsant activity in AB zebra fish larvae assessed as PTZ-induced velocity at 12.5 uM pretreated for 6 hrs followed by PTZ-stimulation and measured every 5 mins for 30 mins (reference value: 0.63 +/- 0.23 mm/s); format: functional; conditions: time 6.5 hrs
Danio rerio [14] = organism: Danio rerio; assay: Anticonvulsant activity in AB zebra fish larvae assessed as PTZ-induced velocity at 25 uM pretreated for 6 hrs followed by PTZ-stimulation and measured every 5 mins for 30 mins (reference value: 0.63 +/- 0.23 mm/s); format: functional; conditions: time 6.5 hrs
Danio rerio [15] = organism: Danio rerio; assay: Anticonvulsant activity in AB zebra fish larvae assessed as PTZ-induced seizure activity at 12.5 uM pretreated for 6 hrs followed by PTZ-stimulation and measured every 5 mins for 30 mins (reference value: 14.13 +/- 0.004 mm); format: functional; conditions: time 6.5 hrs
Danio rerio [16] = organism: Danio rerio; assay: Anticonvulsant activity in AB zebra fish larvae assessed as PTZ-induced seizure activity at 25 uM pretreated for 6 hrs followed by PTZ-stimulation and measured every 5 mins for 30 mins (reference value: 14.13 +/- 0.004 mm); format: functional; conditions: time 6.5 hrs
Danio rerio [17] = organism: Danio rerio; assay: Anticonvulsant activity in AB zebra fish larvae assessed as PTZ-induced seizure duration time at 6.2 uM pretreated for 6 hrs followed by PTZ-stimulation and measured every 5 mins for 30 mins (reference value: 0.32 +/- 0.31 s); format: functional; conditions: time 6.5 hrs
Danio rerio [18] = organism: Danio rerio; assay: Anticonvulsant activity in AB zebra fish larvae assessed as PTZ-induced seizure duration time at 12.5 uM pretreated for 6 hrs followed by PTZ-stimulation and measured every 5 mins for 30 mins (reference value: 0.32 +/- 0.31 s); format: functional; conditions: time 6.5 hrs
Danio rerio [19] = organism: Danio rerio; assay: Anticonvulsant activity in AB zebra fish larvae assessed as PTZ-induced seizure duration time at 25 uM pretreated for 6 hrs followed by PTZ-stimulation and measured every 5 mins for 30 mins (reference value: 0.32 +/- 0.31 s); format: functional; conditions: time 6.5 hrs
Danio rerio [20] = organism: Danio rerio; assay: Anticonvulsant activity in AB zebra fish larvae assessed as PTZ-induced number of burst at 6.2 uM pretreated for 6 hrs followed by PTZ-stimulation and measured every 5 mins for 30 mins (reference value: 9.25 +/- 6.36); format: functional; conditions: time 6.5 hrs
Danio rerio [21] = organism: Danio rerio; assay: Anticonvulsant activity in AB zebra fish larvae assessed as PTZ-induced number of burst at 12.5 uM pretreated for 6 hrs followed by PTZ-stimulation and measured every 5 mins for 30 mins (reference value: 9.25 +/- 6.36); format: functional; conditions: time 6.5 hrs
Danio rerio [22] = organism: Danio rerio; assay: Anticonvulsant activity in AB zebra fish larvae assessed as PTZ-induced number of burst at 25 uM pretreated for 6 hrs followed by PTZ-stimulation and measured every 5 mins for 30 mins (reference value: 9.25 +/- 6.36); format: functional; conditions: time 6.5 hrs
Danio rerio [23] = organism: Danio rerio; assay: Anticonvulsant activity in AB zebra fish larvae assessed as PTZ-induced npas4a mRNA expression at 25 uM pretreated for 6 hrs followed by PTZ-stimulation and measured after 30 mins by qRT-PCR analysis (reference value: 25.34 +/- 3.28%); format: functional; conditions: time 6.5 hrs
Danio rerio [24] = organism: Danio rerio; assay: Anticonvulsant activity in AB zebra fish larvae assessed as PTZ-induced PYYA mRNA expression at 25 uM pretreated for 6 hrs followed by PTZ-stimulation and measured after 30 mins by qRT-PCR analysis (reference value: 18.53 +/- 4.32%); format: functional; conditions: time 6.5 hrs
Danio rerio [25] = organism: Danio rerio; assay: Anticonvulsant activity in AB zebra fish larvae assessed as PTZ-induced c-fos mRNA expression at 25 uM pretreated for 6 hrs followed by PTZ-stimulation and measured after 30 mins by qRT-PCR analysis (reference value: 8.91 +/- 0.54%); format: functional; conditions: time 6.5 hrs

CC(C)=CCC/C(C)=C/C[C@@]1(CC=C(C)C)C(=O)C(O)=C(O)c2oc3c4c(cc(O)c3c(=O)c21)OC(C)(C)C=C4
Activity (Danio rerio [1]): 1210 mm
Activity [2]: Toxic
Activity [3]: Toxic
MNTC at 6 h [4]: 50 µM
Activity [5]: Non-Toxic
Activity [6]: Toxic
Activity (Danio rerio [7]): 25%
Activity (Danio rerio [8]): 50%
Activity (Danio rerio [9]): inactive
Activity (Danio rerio [10]): 12.5 µM
Ratio [11]: 4
Activity (Danio rerio [12]): 1.2 millimeter/sec
Activity (Danio rerio [13]): 0.86 millimeter/sec
Activity (Danio rerio [14]): 0.8 millimeter/sec
Activity (Danio rerio [15]): 600.8 mm
Activity (Danio rerio [16]): 557.9 mm
Time (Danio rerio [17]): 18.46 s
Time (Danio rerio [18]): 8.18 s
Time (Danio rerio [19]): 7.32 s
Activity (Danio rerio [20]): 287.3
Activity (Danio rerio [21]): 153.5
Activity (Danio rerio [22]): 142.3
Activity (Danio rerio [23]): 0.89%
Activity (Danio rerio [24]): 1.09%
Activity (Danio rerio [25]): 3.31%
